Patent publication US20210127673A1, “HERBICIDES” (SYNGENTA PARTICIPATIONS AG, priority 2016, published 2021)

Tests used:
Assay type in all cases: in vivo
Settings in all cases: 1000 g/ha, evaluated after 13 days
[1] = system: Avena fatua (AVEFA); test: Post-emergence herbicidal activity, Avena fatua
Protocol: (§1) Seeds of a variety of test species were sown in standard soil in pots: Triticum aestivium (TRZAW), Avena fatua (AVEFA), Alopecurus myosuroides (ALOMY), Echinochloa crus-galli (ECHCG), Lolium perenne (LOLPE), Zea Mays (ZEAMX), Abutilon theophrasti (ABUTH), Amaranthus retroflexus (AMARE) and Setaria faberi (SETFA). After 8 days cultivation (post-emergence) under controlled conditions in a glasshouse (at 24/16° C., day/night; 14 hours light; 65% humidity), the plants were sprayed with an aqueous spray solution derived from the formulation of the technical active ingredient in acetone/water (50:50) solution containing 0.5% Tween 20 (polyoxyethelyene sorbitan monolaurate, CAS RN 9005-64-5). The test plants were then grown in a glasshouse under controlled conditions (at 24/16° C., day/night; 14 hours light; 65% humidity) and watered twice daily. After 13 days, the test was evaluated (5=total damage to plant; 0=no damage to plant).

[2] = system: Setaria faberi (SETFA); test: Post-emergence herbicidal activity, Setaria faberi; set-up: key: 5=total damage to plant; 0=no damage to plant
Protocol: as §1

[3] = system: Lolium perenne (LOLPE); test: Post-emergence herbicidal activity, Lolium perenne
Protocol: as §1

[4] = system: Avena fatua (AVEFA); test: Pre-emergence herbicidal activity, Avena fatua; set-up: key: 5=total damage to plant; 0=no damage to plant
Protocol: (§2) Seeds of a variety of test species were sown in standard soil in pots: Triticum aestivium (TRZAW), Avena fatua (AVEFA), Alopecurus myosuroides (ALOMY), Echinochloa crus-galli (ECHCG), Lolium perenne (LOLPE), Zea Mays (ZEAMX), Abutilon theophrasti (ABUTH), Amaranthus retroflexus (AMARE) and Setaria faberi (SETFA). After cultivation for one day (pre-emergence) under controlled conditions in a glasshouse (at 24/16° C., day/night; 14 hours light; 65% humidity), the plants were sprayed with an aqueous spray solution derived from the formulation of the technical active ingredient in acetone/water (50:50) solution containing 0.5% Tween 20 (polyoxyethelyene sorbitan monolaurate, CAS RN 9005-64-5). The test plants were then grown in a glasshouse under controlled conditions (at 24/16°, day/night; 14 hours light; 65% humidity) and watered twice daily. After 13 days, the test was evaluated (5=total damage to plant; 0=no damage to plant).

[5] = system: Triticum aestivium (TRZAW); test: Post-emergence herbicidal activity, Triticum aestivium; set-up: key: 5=total damage to plant; 0=no damage to plant
Protocol: as §1

[6] = system: Echinochloa crus-galli (ECHCG); test: Post-emergence herbicidal activity, Echinochloa crus-galli; set-up: key: 5=total damage to plant; 0=no damage to plant
Protocol: as §1

[7] = system: Lolium perenne (LOLPE); test: Pre-emergence herbicidal activity, Lolium perenne; set-up: key: 5=total damage to plant; 0=no damage to plant
Protocol: as §2

[8] = system: Triticum aestivium (TRZAW); test: Pre-emergence herbicidal activity, Triticum aestivium; set-up: key: 5=total damage to plant; 0=no damage to plant
Protocol: as §2

[9] = system: Alopecurus myosuroides (ALOMY); test: Post-emergence herbicidal activity, Alopecurus myosuroides; set-up: key: 5=total damage to plant; 0=no damage to plant
Protocol: as §1

[10] = system: Setaria faberi (SETFA); test: Pre-emergence herbicidal activity, Setaria faberi; set-up: key: 5=total damage to plant; 0=no damage to plant
Protocol: as §2

[11] = system: Alopecurus myosuroides (ALOMY); test: Pre-emergence herbicidal activity, Alopecurus myosuroides; set-up: key: 5=total damage to plant; 0=no damage to plant
Protocol: as §2

[12] = system: Echinochloa crus-galli (ECHCG); test: Pre-emergence herbicidal activity, Echinochloa crus-galli
Protocol: as §2

O=C(Nc1ccc(-c2cncc(F)c2)nc1C(F)(F)F)OCC(F)(F)F [Compound B57]
Control of AVEFA after post-emergence application (score 0-5) [1]: 3
Control of SETFA after post-emergence application (score 0-5) [2]: 3
Control of LOLPE after post-emergence application (score 0-5) [3]: 2
Control of AVEFA after pre-emergence application (score 0-5) [4]: 1
Control of TRAZW after post-emergence application (score 0-5) [5]: 0
Control of ECHCG after post-emergence application (score 0-5) [6]: 4
Control of LOLPE after pre-emergence application (score 0-5) [7]: 1
Control of TRAZW after pre-emergence application (score 0-5) [8]: 0
Control of ALOMY after post-emergence application (score 0-5) [9]: 0
Control of SETFA after pre-emergence application (score 0-5) [10]: 3
Control of ALOMY after pre-emergence application (score 0-5) [11]: 0
Control of ECHCG after pre-emergence application (score 0-5) [12]: 2

O=C(Nc1ccc(-c2cncc(F)c2)nc1C(F)(F)F)N1CC[S+]([O-])C1 (stereo not shown) [Compound B117, N-[6-(5-fluoro-3-pyridyl)-2-(trifluoromethyl)-3-pyridyl]-1-oxo-1,3-thiazolidine-3-carboxamide]
Control of AVEFA after post-emergence application (score 0-5) [1]: 4
Control of SETFA after post-emergence application (score 0-5) [2]: 5
Control of LOLPE after post-emergence application (score 0-5) [3]: 4
Control of AVEFA after pre-emergence application (score 0-5) [4]: 3
Control of TRAZW after post-emergence application (score 0-5) [5]: 3
Control of ECHCG after post-emergence application (score 0-5) [6]: 5
Control of LOLPE after pre-emergence application (score 0-5) [7]: 1
Control of TRAZW after pre-emergence application (score 0-5) [8]: 0
Control of ALOMY after post-emergence application (score 0-5) [9]: 1
Control of SETFA after pre-emergence application (score 0-5) [10]: 5
Control of ALOMY after pre-emergence application (score 0-5) [11]: 0
Control of ECHCG after pre-emergence application (score 0-5) [12]: 4

CC(C)c1cc(NC(=O)Nc2ccc(-c3cncc(F)c3)nc2C(F)(F)F)on1 [Compound B40]
Control of AVEFA after post-emergence application (score 0-5) [1]: 2
Control of SETFA after post-emergence application (score 0-5) [2]: 3
Control of LOLPE after post-emergence application (score 0-5) [3]: 1
Control of AVEFA after pre-emergence application (score 0-5) [4]: 0
Control of TRAZW after post-emergence application (score 0-5) [5]: 0
Control of ECHCG after post-emergence application (score 0-5) [6]: 1
Control of LOLPE after pre-emergence application (score 0-5) [7]: 1
Control of TRAZW after pre-emergence application (score 0-5) [8]: 0
Control of ALOMY after post-emergence application (score 0-5) [9]: 0
Control of SETFA after pre-emergence application (score 0-5) [10]: 1
Control of ALOMY after pre-emergence application (score 0-5) [11]: 0
Control of ECHCG after pre-emergence application (score 0-5) [12]: 1

C#CCNC(=O)Nc1ccc(-c2cncc(F)c2)nc1C(F)(F)F [Compound B41]
Control of AVEFA after post-emergence application (score 0-5) [1]: 3
Control of SETFA after post-emergence application (score 0-5) [2]: 5
Control of LOLPE after post-emergence application (score 0-5) [3]: 2
Control of AVEFA after pre-emergence application (score 0-5) [4]: 1
Control of TRAZW after post-emergence application (score 0-5) [5]: 0
Control of ECHCG after post-emergence application (score 0-5) [6]: 4
Control of LOLPE after pre-emergence application (score 0-5) [7]: 1
Control of TRAZW after pre-emergence application (score 0-5) [8]: 0
Control of ALOMY after post-emergence application (score 0-5) [9]: 0
Control of SETFA after pre-emergence application (score 0-5) [10]: 5
Control of ALOMY after pre-emergence application (score 0-5) [11]: 0
Control of ECHCG after pre-emergence application (score 0-5) [12]: 4

C#CCOC(=O)Nc1ccc(-c2cncc(F)c2)nc1C(F)(F)F [Compound B61]
Control of AVEFA after post-emergence application (score 0-5) [1]: 2
Control of SETFA after post-emergence application (score 0-5) [2]: 4
Control of LOLPE after post-emergence application (score 0-5) [3]: 2
Control of AVEFA after pre-emergence application (score 0-5) [4]: 2
Control of TRAZW after post-emergence application (score 0-5) [5]: 0
Control of ECHCG after post-emergence application (score 0-5) [6]: 4
Control of LOLPE after pre-emergence application (score 0-5) [7]: 1
Control of TRAZW after pre-emergence application (score 0-5) [8]: 0
Control of ALOMY after post-emergence application (score 0-5) [9]: 1
Control of SETFA after pre-emergence application (score 0-5) [10]: 2
Control of ALOMY after pre-emergence application (score 0-5) [11]: 1
Control of ECHCG after pre-emergence application (score 0-5) [12]: 3

CN(C)C(=O)Nc1ccc(-c2cncc(F)c2)nc1C(F)(F)F [Compound B52]
Control of AVEFA after post-emergence application (score 0-5) [1]: 3
Control of SETFA after post-emergence application (score 0-5) [2]: 5
Control of LOLPE after post-emergence application (score 0-5) [3]: 3
Control of AVEFA after pre-emergence application (score 0-5) [4]: 2
Control of TRAZW after post-emergence application (score 0-5) [5]: 0
Control of ECHCG after post-emergence application (score 0-5) [6]: 4
Control of LOLPE after pre-emergence application (score 0-5) [7]: 1
Control of TRAZW after pre-emergence application (score 0-5) [8]: 0
Control of ALOMY after post-emergence application (score 0-5) [9]: 0
Control of ALOMY after pre-emergence application (score 0-5) [11]: 0
Control of ECHCG after pre-emergence application (score 0-5) [12]: 3

CC(C)(C)OC(=O)Nc1ccc(-c2cncc(OC(F)(F)F)c2)nc1C(F)(F)F [Compound B36]
Control of AVEFA after post-emergence application (score 0-5) [1]: 3
Control of LOLPE after post-emergence application (score 0-5) [3]: 1
Control of AVEFA after pre-emergence application (score 0-5) [4]: 2
Control of TRAZW after post-emergence application (score 0-5) [5]: 0
Control of ECHCG after post-emergence application (score 0-5) [6]: 3
Control of LOLPE after pre-emergence application (score 0-5) [7]: 0
Control of TRAZW after pre-emergence application (score 0-5) [8]: 0
Control of ALOMY after post-emergence application (score 0-5) [9]: 0
Control of SETFA after pre-emergence application (score 0-5) [10]: 5
Control of ALOMY after pre-emergence application (score 0-5) [11]: 0
Control of ECHCG after pre-emergence application (score 0-5) [12]: 3

COC(=O)c1nc(-c2cncc(F)c2)ccc1NC(=O)OC(C)(C)C [Compound B77]
Control of AVEFA after post-emergence application (score 0-5) [1]: 1
Control of SETFA after post-emergence application (score 0-5) [2]: 2
Control of LOLPE after post-emergence application (score 0-5) [3]: 1
Control of AVEFA after pre-emergence application (score 0-5) [4]: 0
Control of TRAZW after post-emergence application (score 0-5) [5]: 0
Control of ECHCG after post-emergence application (score 0-5) [6]: 1
Control of LOLPE after pre-emergence application (score 0-5) [7]: 0
Control of TRAZW after pre-emergence application (score 0-5) [8]: 0
Control of ALOMY after post-emergence application (score 0-5) [9]: 0
Control of ALOMY after pre-emergence application (score 0-5) [11]: 0
Control of ECHCG after pre-emergence application (score 0-5) [12]: 1

CN(C)C(=O)N(C)c1ccc(-c2cncc(F)c2)nc1C(F)(F)F [Compound B74]
Control of SETFA after post-emergence application (score 0-5) [2]: 5
Control of AVEFA after pre-emergence application (score 0-5) [4]: 2
Control of TRAZW after post-emergence application (score 0-5) [5]: 0
Control of ECHCG after post-emergence application (score 0-5) [6]: 4
Control of LOLPE after pre-emergence application (score 0-5) [7]: 1
Control of TRAZW after pre-emergence application (score 0-5) [8]: 1
Control of ALOMY after post-emergence application (score 0-5) [9]: 0
Control of SETFA after pre-emergence application (score 0-5) [10]: 5
Control of ALOMY after pre-emergence application (score 0-5) [11]: 1
Control of ECHCG after pre-emergence application (score 0-5) [12]: 4

CC(C)NC(=O)Nc1ccc(-c2cncc(F)c2)nc1C(F)(F)F [Compound B37, 1-[6-(5-fluoro-3-pyridyl)-2-(trifluoromethyl)-3-pyridyl]-3-isopropyl-urea]
Control of AVEFA after post-emergence application (score 0-5) [1]: 3
Control of LOLPE after post-emergence application (score 0-5) [3]: 2
Control of AVEFA after pre-emergence application (score 0-5) [4]: 2
Control of TRAZW after post-emergence application (score 0-5) [5]: 0
Control of ECHCG after post-emergence application (score 0-5) [6]: 5
Control of LOLPE after pre-emergence application (score 0-5) [7]: 1
Control of TRAZW after pre-emergence application (score 0-5) [8]: 0
Control of ALOMY after post-emergence application (score 0-5) [9]: 0
Control of SETFA after pre-emergence application (score 0-5) [10]: 5
Control of ALOMY after pre-emergence application (score 0-5) [11]: 0
Control of ECHCG after pre-emergence application (score 0-5) [12]: 4

O=C(Nc1ccc(-c2cncc(F)c2)nc1C(F)(F)F)OC1CCS(=O)(=O)C1 (stereo not shown) [Compound B66]
Control of SETFA after post-emergence application (score 0-5) [2]: 5
Control of AVEFA after pre-emergence application (score 0-5) [4]: 2
Control of TRAZW after post-emergence application (score 0-5) [5]: 1
Control of ECHCG after post-emergence application (score 0-5) [6]: 4
Control of LOLPE after pre-emergence application (score 0-5) [7]: 1
Control of TRAZW after pre-emergence application (score 0-5) [8]: 0
Control of ALOMY after post-emergence application (score 0-5) [9]: 0
Control of SETFA after pre-emergence application (score 0-5) [10]: 5
Control of ALOMY after pre-emergence application (score 0-5) [11]: 0
Control of ECHCG after pre-emergence application (score 0-5) [12]: 3
